{
  "source": "patent US6174896A",
  "about": "“Quinuclidine derivatives and medicinal composition thereof” (Yamanouchi Pharmaceutical Co., Ltd., priority 1994, dated 2001)",
  "tested_on": "oxotremorine-induced salivary secretion",
  "test": "Test on salivary secretion in rat",
  "format": "in vivo",
  "conditions": "urethane-anesthetized male Wistar rat, oxotremorine 0.8 μmol/kg",
  "experimental": "A male Wistar rat (160-190 g) was subjected to anesthesia with urethane (0.8 g/kg i.p.), and the test compound was administered (to the control group: solvent). Fifteen minutes later, 0.8 μmol/kg of oxotremorine was administered. In each case, the drug was administered through its femoral artery. The saliva secreted for 5 minutes after the administration of oxotremorine was collected and weighed. The inhibition ratio against the amount of saliva in the control group was determined and the dose of the test compound required for 50% inhibition of the amount of saliva in the control group was designated as ID50.",
  "data": [
    {"smiles": "CN1[C@@H]2CC[C@H]1C[C@@H](OC(=O)C(CO)c1ccccc1)C2", "note": "(stereo partly shown) [atropine]", "values": [
      {"measurement": "ID50 value (salivary secretion) compared with ED30 value (rhythmic bladder contraction)", "result": "substantially the same"}
    ]}
  ]
}
